Measurements reported in patent US20100298141A1, “SUBSTITUTED PYRIDINE N-OXIDE HERBICIDES” (E. I. DU PONT DE NEMOURS AND COMPANY, priority 2007, published 2010).

Key:
barnyardgrass [1] = test: Test A pre-/postemergence greenhouse test; type: in vivo, Echinochloa crus-galli; conditions: for Plant response rating, Barnyardgrass: 0 to 100 scale where 0 is no effect and 100 is complete control; for Barnyardgrass plant response rating: 0 to 100 scale
Procedure, shortened: (§1)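 Two application timings were run side by side in the greenhouse. Before emergence, compound went onto the soil surface of loam–sand pots as a directed spray; after emergence, plants at 2–10 cm and the one- to two-leaf stage were treated. Visual injury versus controls was rated at approximately day ten.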

crabgrass [2] = test: Test A pre-/postemergence greenhouse test; type: in vivo, Digitaria sanguinalis; conditions: for Plant response rating, Crabgrass, Large: 0 to 100 scale where 0 is no effect and 100 is complete control; for Crabgrass, Large plant response rating: 0 to 100 scale
Procedure, shortened: as §1

giant foxtail = test: Test A pre-/postemergence greenhouse test; type: in vivo, Setaria faberi; conditions: for Plant response rating, Foxtail, Giant: 0 to 100 scale where 0 is no effect and 100 is complete control; for Foxtail, Giant plant response rating: 0 to 100 scale
Procedure, shortened: as §1

morningglory = test: Test A pre-/postemergence greenhouse test; type: in vivo, Ipomoea spp.; conditions: for Plant response rating, Morningglory: 0 to 100 scale where 0 is no effect and 100 is complete control; for Morningglory plant response rating: 0 to 100 scale
Procedure, shortened: as §1

Italian ryegrass = test: Test C pre-/postemergence test; type: in vivo, Lolium multiflorum
Procedure, shortened: (§2)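 Test chemicals were formulated with surfactant in a non-phytotoxic solvent and sprayed both on freshly planted seeds (preemergence) and on 1- to 4-leaf plants of 2–18 cm (postemergence). Flooded-paddy pots received compound directly into 3 cm of standing water, maintained for the test.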

bermudagrass = test: Test C pre-/postemergence test; type: in vivo, Cynodon dactylon
Procedure, shortened: as §2

Surinam grass = test: Test C pre-/postemergence test; type: in vivo, Brachiaria decumbens
Procedure, shortened: as §2

cocklebur = test: Test C pre-/postemergence test; type: in vivo, Xanthium strumarium
Procedure, shortened: as §2

crabgrass [3] = test: Test C pre-/postemergence test; type: in vivo, Digitaria sanguinalis
Procedure, shortened: as §2

Goosegrass = test: Test C pre-/postemergence test; type: in vivo, Eleusin indica
Procedure, shortened: as §2

kochia = test: Test C pre-/postemergence test; type: in vivo, Kochia scoparia
Procedure, shortened: as §2

lambsquarters = test: Test C pre-/postemergence test; type: in vivo, Chenopodium album
Procedure, shortened: as §2

pigweed = test: Test C pre-/postemergence test; type: in vivo, Amaranthus retroflexus
Procedure, shortened: as §2

soybean = test: Test C pre-/postemergence test; type: in vivo, Glycine max
Procedure, shortened: as §2

[4] = system: common (oilseed) sunflower; test: Test C pre-/postemergence test; type: in vivo, Helianthus annuus
Procedure, shortened: as §2

umbrella sedge = test: Test C flooded paddy test; type: in vivo, Cyperus difformis; conditions: Flood
Procedure, shortened: (§3)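 Compound was added to standing water 3 cm above soil, flood maintained, and plants held in a greenhouse before visual scoring against controls at 13 to 15 days.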

barnyardgrass [5] = test: Test C flooded paddy test; type: in vivo, Echinochloa crus-galli; conditions: Flood
Procedure, shortened: as §3

[6] = Postemergence, 500 g ai/ha, 0 is no effect, 100 is complete control
[7] = Preemergence, 125 g ai/ha, 0 no effect, 100 complete control
[8] = 62 g ai/ha, Preemergence, scale 0 to 100
[9] = 125 g ai/ha, preemergence, scale 0 (no effect) to 100 (complete control)
[10] = Postemergence, 125 g ai/ha, scale 0 to 100, 0 no effect, 100 complete control
[11] = Postemergence, 250 g ai/ha, scale 0 to 100, 0 no effect, 100 complete control
[12] = Preemergence, 31 g ai/ha, scale 0 to 100 (0 no effect, 100 complete control)
[13] = preemergence, 250 g ai/ha, scale 0 (no effect) to 100 (complete control)
[14] = Postemergence, 62 g ai/ha, scale 0 to 100, 0 no effect, 100 complete control
[15] = 62 g ai/ha, scale 0 to 100 (0 no effect, 100 complete control)
[16] = 250 g ai/ha, scale 0 to 100, 0 no effect, 100 complete control, 13 to 15 days

Structure (SMILES): Cn1nc(C(F)(F)F)c(C[S+]([O-])c2ccc(F)c[n+]2[O-])c1OC(F)F (centres unmarked) [Compound 58]
- Plant response rating, Barnyardgrass (barnyardgrass [1]; Postemergence, 125 g ai/ha): 80
- Barnyardgrass plant response rating (barnyardgrass [1]; [6]): 90
- Barnyardgrass plant response rating (barnyardgrass [1]; [7]): 90
- Plant response rating, Barnyardgrass (barnyardgrass [1]; Preemergence, 500 g ai/ha): 90
- Plant response rating, Crabgrass, Large (crabgrass [2]; Postemergence, 125 g ai/ha): 80
- Crabgrass, Large plant response rating (crabgrass [2]; [6]): 90
- Crabgrass, Large plant response rating (crabgrass [2]; [7]): 80
- Plant response rating, Crabgrass, Large (crabgrass [2]; Preemergence, 500 g ai/ha): 100
- Plant response rating, Foxtail, Giant (giant foxtail; Postemergence, 125 g ai/ha): 90
- Foxtail, Giant plant response rating (giant foxtail; [6]): 90
- Foxtail, Giant plant response rating (giant foxtail; [7]): 100
- Plant response rating, Foxtail, Giant (giant foxtail; Preemergence, 500 g ai/ha): 100
- Plant response rating, Morningglory (morningglory; Postemergence, 125 g ai/ha): 70
- Morningglory plant response rating (morningglory; [6]): 90
- Morningglory plant response rating (morningglory; [7]): 60
- Plant response rating, Morningglory (morningglory; Preemergence, 500 g ai/ha): 100
- Ryegrass, Italian plant response rating (Italian ryegrass; [8]): 70
- Ryegrass, Italian plant response rating (Italian ryegrass; [9]): 98
- Plant response rating (0 to 100), Ryegrass, Italian (Italian ryegrass; Postemergence, 31 g ai/ha): 0
- Plant response rating (0 to 100), Ryegrass, Italian (Italian ryegrass; Postemergence, 62 g ai/ha): 40
- Plant response rating, Ryegrass, Italian (Italian ryegrass; [10]): 70
- Plant response rating, Ryegrass, Italian (Italian ryegrass; [11]): 90
- Plant response rating, Ryegrass, Italian (Italian ryegrass; [12]): 40
- Ryegrass, Italian plant response rating (Italian ryegrass; [13]): 100
- Bermudagrass plant response rating (bermudagrass; 62 g ai/ha, Preemergence, scale 0 to 100 (0 no effect, 100 complete control)): 100
- Bermudagrass plant response rating (bermudagrass; [9]): 100
- Plant response rating (0 to 100), Bermudagrass (bermudagrass; Postemergence, 31 g ai/ha): 0
- Plant response rating, Bermudagrass (bermudagrass; [14]): 0
- Plant response rating, Bermudagrass (bermudagrass; [10]): 20
- Plant response rating, Bermudagrass (bermudagrass; [11]): 40
- Plant response rating, Bermudagrass (bermudagrass; [12]): 100
- Bermudagrass plant response rating (bermudagrass; [13]): 100
- Surinam Grass plant response rating (Surinam grass; [8]): 80
- Surinam Grass plant response rating (Surinam grass; [9]): 85
- Plant response rating (0 to 100), Surinam Grass (Surinam grass; Postemergence, 31 g ai/ha): 0
- Plant response rating (0 to 100), Surinam Grass (Surinam grass; Postemergence, 62 g ai/ha): 0
- Plant response rating, Surinam Grass (Surinam grass; [10]): 10
- Plant response rating, Surinam Grass (Surinam grass; [11]): 45
- Plant response rating, Surinam Grass (Surinam grass; [12]): 70
- Surinam Grass plant response rating (Surinam grass; [13]): 100
- Cocklebur plant response rating (cocklebur; [8]): 0
- Cocklebur plant response rating (cocklebur; [9]): 0
- Plant response rating (0 to 100), Cocklebur (cocklebur; Postemergence, 31 g ai/ha): 0
- Plant response rating, Cocklebur (cocklebur; [14]): 0
- Plant response rating, Cocklebur (cocklebur; [10]): 0
- Plant response rating, Cocklebur (cocklebur; [11]): 0
- Plant response rating, Cocklebur (cocklebur; [12]): 0
- Cocklebur plant response rating (cocklebur; [13]): 40
- Crabgrass, Large plant response rating (crabgrass [3]; [8]): 100
- Crabgrass, Large plant response rating (crabgrass [3]; [9]): 100
- Plant response rating (0 to 100), Crabgrass, Large (crabgrass [3]; Postemergence, 31 g ai/ha): 0
- Plant response rating, Crabgrass, Large (crabgrass [3]; [14]): 0
- Plant response rating, Crabgrass, Large (crabgrass [3]; [10]): 0
- Plant response rating, Crabgrass, Large (crabgrass [3]; [11]): 45
- Plant response rating, Crabgrass, Large (crabgrass [3]; [12]): 50
- Crabgrass, Large plant response rating (crabgrass [3]; [13]): 100
- Goosegrass plant response rating (Goosegrass; [8]): 90
- Goosegrass plant response rating (Goosegrass; [9]): 100
- Plant response rating (0 to 100), Goosegrass (Goosegrass; Postemergence, 31 g ai/ha): 0
- Plant response rating, Goosegrass (Goosegrass; [14]): 0
- Plant response rating, Goosegrass (Goosegrass; [10]): 5
- Plant response rating, Goosegrass (Goosegrass; [11]): 60
- Plant response rating, Goosegrass (Goosegrass; [12]): 80
- Goosegrass plant response rating (Goosegrass; [13]): 100
- Kochia plant response rating (kochia; [8]): 50
- Kochia plant response rating (kochia; [9]): 100
- Plant response rating (0 to 100), Kochia (kochia; Postemergence, 31 g ai/ha): 0
- Plant response rating, Kochia (kochia; [14]): 0
- Plant response rating, Kochia (kochia; [10]): 0
- Plant response rating, Kochia (kochia; [11]): 50
- Plant response rating, Kochia (kochia; [12]): 0
- Kochia plant response rating (kochia; [13]): 100
- Lambsquarters plant response rating (lambsquarters; [8]): 100
- Lambsquarters plant response rating (lambsquarters; [9]): 100
- Plant response rating (0 to 100), Lambsquarters (lambsquarters; Postemergence, 31 g ai/ha): 0
- Plant response rating, Lambsquarters (lambsquarters; [14]): 0
- Plant response rating, Lambsquarters (lambsquarters; [10]): 0
- Plant response rating, Lambsquarters (lambsquarters; [11]): 30
- Plant response rating, Lambsquarters (lambsquarters; [12]): 70
- Lambsquarters plant response rating (lambsquarters; [13]): 100
- Pigweed plant response rating (pigweed; [8]): 100
- Pigweed plant response rating (pigweed; [9]): 100
- Plant response rating (0 to 100), Pigweed (pigweed; Postemergence, 31 g ai/ha): 0
- Plant response rating (0 to 100), Pigweed (pigweed; Postemergence, 62 g ai/ha): 0
- Plant response rating, Pigweed (pigweed; [10]): 5
- Plant response rating, Pigweed (pigweed; [11]): 10
- Plant response rating, Pigweed (pigweed; [12]): 100
- Pigweed plant response rating (pigweed; [13]): 100
- Soybean plant response rating (soybean; [8]): 100
- Soybean plant response rating (soybean; [9]): 100
- Plant response rating (0 to 100), Soybean (soybean; Postemergence, 31 g ai/ha): 20
- Plant response rating (0 to 100), Soybean (soybean; Postemergence, 62 g ai/ha): 40
- Plant response rating, Soybean (soybean; [10]): 60
- Plant response rating, Soybean (soybean; [11]): 65
- Plant response rating, Soybean (soybean; [12]): 0
- Soybean plant response rating (soybean; [13]): 100
- Sunflower plant response rating [4, 8]: 35
- Sunflower plant response rating [4, 9]: 35
- Plant response rating, Sunflower [4, 12]: 10
- Sunflower plant response rating [4, 13]: 85
- Plant response rating, Sedge, Umbrella (umbrella sedge; [15]): 80
- Plant response rating, Sedge, Umbrella (umbrella sedge; [16]): 80
- Plant response rating, Barnyardgrass (barnyardgrass [5]; [15]): 65
- Plant response rating, Barnyardgrass (barnyardgrass [5]; [16]): 85
